Data: patent US7202218B2, “Oligopeptide antagonist of interleukin-6” (National Taiwan University, priority 2005, dated 2007)
Where no end group is shown, it is not given here.

Legend:
[1] = target: T1, IL-6Rα in different cell lines (Homo sapiens, UniProt P08887); experiment: In vitro competition assay of synthetic peptides on cell lines; assay type: cell-based; conditions: synthetic peptide; FIG. 3
T1 construct: all membrane-type IL-6Rα-expressing cell lines; endogenous in cells
T1 sequence (P08887 20-468): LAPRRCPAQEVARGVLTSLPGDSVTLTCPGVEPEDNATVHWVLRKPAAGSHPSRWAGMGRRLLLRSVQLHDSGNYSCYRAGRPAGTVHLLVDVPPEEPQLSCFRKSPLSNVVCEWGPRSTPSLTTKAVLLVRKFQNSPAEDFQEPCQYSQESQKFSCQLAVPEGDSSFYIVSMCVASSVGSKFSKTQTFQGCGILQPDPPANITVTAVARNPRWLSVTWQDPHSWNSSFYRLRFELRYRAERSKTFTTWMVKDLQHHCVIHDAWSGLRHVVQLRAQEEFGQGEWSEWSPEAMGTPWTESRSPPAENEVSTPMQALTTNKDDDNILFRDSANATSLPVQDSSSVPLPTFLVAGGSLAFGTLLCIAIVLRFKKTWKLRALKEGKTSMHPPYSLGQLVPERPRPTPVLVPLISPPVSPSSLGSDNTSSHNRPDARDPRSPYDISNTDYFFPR
Procedure: The binding affinities to IL-6Rα of the 7 independent peptide sequences of the IR-6Rα-binding clones selected from phage display peptide library (Table 1) were confirmed. The phage clones with the inserted DNA encoding these 7 different peptide sequences (phage S1˜S7) were added into IL-6Rα coated 96-well cell culture plates (10^12 pfu/ml) and incubated with IL-6Rα for 1 hour. IL-6 protein (50 ng/ml, 100 μl) was added to the wells and incubated at room temperature for 2 hours. The plates were thoroughly washed with 0.1% BSA (bovine serum albumin)/PBS (phosphate-buffered saline) buffer (pH 8.5). Finally, biotin-conjugated anti-IL-6 monoclonal antibody, horseradish peroxidase (HRP)-conjugated streptavidin and tetramethyl benzidine (TMB) substrate solution were used to perform the known phage Enzyme-Linked Immunosorbent Assay (ELISA) to determine the L-6 protein bound to the cell plates.
Oligopeptides encoded by the inserted DNA in phages S7 and S1 (labeled as ‘peptide S7’ (SEQ ID NO: 7) or ‘peptide S1’ (SEQ ID NO: 1) hereafter) were produced by the known peptide synthesis method. The binding assay described in Example 1 was carried out, but using peptide S7 or peptide S1 (negative control) instead of phage clones, and using cell lines instead of IL-6Rα to perform competition assay and get the result shown in FIG. 3.

Mcl-1 protein = experiment: Western blot of IL-6-induced Mcl-1 protein in C33A cells; assay type: cell-based, human; conditions: FIG. 4B
Procedure: (§1) 80% confluent C33A cells were starved for 24 hours and then treated with human IL-6 protein (50 ng/mL) in the presence or absence of S1 peptide (50 μmol/L) or S7 peptide (50 μmol/L). Cell lysates were obtained and subjected to SDS-PAGE separation and Western blot analysis using various antibodies for immunoblotting, such as anti-phospho-ERK1/2, anti-phospho-Akt, anti-ERK1/2, and anti-Akt.
Equal amounts of cell lysates (75 μg) were resolved by SDS-PAGE, transferred to polyvinylidene difluoride membranes, and probed with specific anti-Mcl-1 antibodies as described above. β-actin served as the internal loading control to get the result shown in FIG. 4A.

HUVECs [2] = experiment: HUVEC proliferation induced by IL-6-CM, trypan blue exclusion; assay type: cell-based, human; conditions: CM from IL-6-overexpressed cells; 24 hours; FIG. 6
Procedure: (§2) C33A cervical cancer cells, RPMI 8226 multiple myeloma cells and basal cell carcinoma (BCC) cells, vectors (negative control) were cultivated respectively in DMEM containing 10% FBS, penicillin (100 units/ml), and streptomycin (100 μg/mL) as well as IL-6 protein. At 90% confluence, culture medium was replaced with serum-free medium. IL-6 containing C33A cells were incubated with S1 or S7 peptide for another 24 hours. Conditioned medium (CM) was collected after centrifugation of cellular debris.
HUVECs were plated onto six-well dishes (Falcon, Becton Dickinson) at a concentration of 2.5×10^5 cells per well in M199 medium supplemented with 10% FBS. One day after seeding, HUVECs were stimulated with CM from cells treated in various ways respectively, where the CM was mixed with M199 medium. Twenty-four hours later, the viable cells were counted using a trypan blue exclusion method.
For the trypan blue exclusion assay, cells were washed with PBS, trypsinized, and then resuspended in 1 ml PBS. Trypan blue-stained cells were then counted using a modified Neubauer hemocytometer under a phase-contrast light microscope.

C33A/IL-6 cells = experiment: Tumor growth inhibition in SCID mice injected with C33A/IL-6 cells; assay type: in vivo; conditions: 50 mg/kg i.p. every 2 days, FIG. 9
Procedure: Six- to 8-week-old female severe combined immunodeficient (SCID) mice were […] with 1×10^6 C33A/neo or C33A/IL-6 cells. Beginning 3 days later, S1 or S7 peptide (50 mg/kg, dissolved in PBS) was injected i.p. every 2 days. Tumor development was followed in measurements of length (L) and width (W).

[3] = test system: IL-6-induced angiogenesis; experiment: Matrigel plug assay, hemoglobin level; assay type: in vivo; conditions: BALB/c nude mice; plugs recovered after 7 days; FIG. 8
Procedure: On the other hand, Matrigel plug assay was performed to analyze the inhibiting effect on IL-6-induced angiogenesis of peptide S7. Matrigel (500 μl) containing CM from cells treated in various ways was […] into 4- to 8-week-old female BALB/c nude mice at sites lateral to the abdominal midline. Aforementioned CM was obtained either from vector control cells or from IL-6 overexpressed C33A cells in the presence or absence of peptide S7. The Matrigel plugs were recovered after 7 days of implementation, dissolved in PBS, and incubated at 4° C. overnight. Hemoglobin levels were determined using Drabkin's solution (Sigma Chemical) according to the manufacturer's instructions to get the result shown in FIG. 8.

VEGF-A = VEGF-A secretion, quantitative sandwich ELISA of conditioned medium; assay type: cell-based; conditions: C33A, RPMI 8226 and BCC cells (all three cell lines); 24 hours; FIG. 5
Procedure: as §2
The conditioned medium (CM) was concentrated using an Amicon ultracentrifugation device (Millipore). The concentrations of VEGF-A in culture supernatants were determined with quantitative sandwich ELISA assay according to the manufacturer's instruction. Briefly, cell supernatant (50 μl) was incubated with 50 μl of assay diluents for 2 hours at room temperature in a 96-well tissue culture plate coated with monoclonal antibodies against VEGF-A. After five consecutive washes, a conjugate consisting of polyclonal VEGF-A antibodies and HRP was added. The mixture was incubated for 2 hours at room temperature. Following the subsequent addition of a color reagent, absorbance was read at 450 nm using a Thermo-Max microplate reader (Molecular Devices Co., Menlo Park, Calif.).

[4] = test system: Ras/MAPK and PI3-K/Akt signaling pathways; experiment: Western blot of IL-6-induced Akt and ERK1/2 phosphorylation in C33A cells; assay type: cell-based, human; conditions: IL-6 50 ng/mL, peptide 50 μmol/L, FIG. 4A
Procedure: as §1

HUVECs [5] = experiment: Capillary tube-like formation by HUVECs on Matrigel; assay type: cell-based, human; conditions: 6 hours, FIG. 7
Procedure: In vitro Assessment using a growth factor-reduced basement membrane Matrigel matrix was carried out to evaluate capillary tube-like formation. The Matrigel was thawed at 4° C. and mixed to homogeneity. The bottom of 96-well cell culture plates were coated with a thin layer of Matrigel (40 μl) and allow the Matrigel to polymerize at 37° C. for 30 minutes. HUVECs were resuspended in M199 medium containing 1% serum to a density of 2.5×10^4 cells/100 μl, mixed with 100 μl of M199 medium containing 1% serum and 100 μl CM from either C33A/neo or C33A/IL-6 cells treated in various ways, and finally plated onto the Matrigel-coated surface. Six hours later, cells were fixed in 4% paraformaldehyde and stained with 0.1% crystal violet. Three microscopic fields were selected at random and photographed, and the number of tube-like structures per field was determined to get the result shown in FIG. 7.

Substance | antagonism of the binding of IL-6 to IL-6Rα in different cell lines [1] | IL-6-induced up-regulation of Mcl-1 protein (Mcl-1 protein) | IL-6-CM induced HUVECs proliferation (HUVECs [2]) | IL-6-induced tumor growth (C33A/IL-6 cells) | tumor growth inhibition at the end of the experiment (C33A/IL-6 cells; tumor volume) [%] | hemoglobin induction in Matrigel plugs containing C33A/IL-6-CM [3] | IL-6-mediated VEGF-A secretion (VEGF-A) | inhibition of IL-6-induced phosphorylated Akt level [4] | inhibition of IL-6-induced phosphorylated ERK1/2 MAPK level [4] | C33A/IL-6-CM induced tube-like cell cord formation (HUVECs [5])
LSLITRL [peptide S7] | antagonize the binding | antagonized | greatly attenuated | significantly reduced | 76 | almost completely inhibited | significantly decreased | significantly inhibited | significantly inhibited | almost completely inhibited
LSLMPRL [peptide S1, negative control peptide, reference compound] | – | – | not | – | – | – | – | not | not | –
